{
  "source": "patent US9351983B2",
  "about": "“Use of glycerophosphoinositols for the treatment of septic shock” (CONSIGLIO NAZIONALE DELLE RICERCHE, priority 2012, dated 2016)",
  "key": {"[1]": {"tested_on": "TxB-2", "assay": "ELISA of TxB-2 in medium of LPS-stimulated monocytes", "type": "cell-based, human", "details": "300 μM", "procedure": "FIG. 5—The inhibitory effects of GroPIns are also evident at the protein expression level. Purified monocytes (4×10^3 cells/sample) were pre-incubated for 20 min at 37° C. in the absence and presence of 300 μM GroPIns, and then for a further 5 h and 24 h without or with 0.1 μg/ml LPS from E. coli. At the end of this incubation, the levels of TNFα, IL-1β and TxB-2 in the medium were assessed by ELISA. In monocytes alone, the protein concentrations were under the assay detection limits at both the times. The data are representative of three independent experiments performed with cells from different donors. Exposure of monocytes to LPS induced a time-dependent increase in the […] levels of all of the cytokines analysed.\nCellular levels of TNFα, IL-1β and TxB-2 were quantified by enzyme-linked immunosorbent assay (ELISA). Conditioned medium from monocytes was sedimented by centrifugation at 300×g at room temperature for 10 min to eliminate cellular debris. Then, the supernatant was recovered and the concentrations of TNFα, IL-1β and TxB-2 were assessed by ELISA, as specified by the manufacturers (Amersham Pharmacia Biotech (NJ, USA)."}, "[2]": {"tested_on": "human monocytes", "assay": "In vitro model of human innate immunity inflammation: morphology and viability by light microscopy", "type": "cell-based", "details": "300 μM, added 20 minutes before LPS, IL-10 and TGF-β; images at 2 h, 14 h, 24 h, 48 h; one donor, preliminary", "source_text": "FIG. 13—The in vitro model of human innate immunity inflammation. Schematic representation and timing of the in vitro stimulation of human monocytes. In order to mimic the microenvironmental changes and the timing of human host response that covers the different phases of the inflammatory reaction, from recruitment and onset, to development and resolution of inflammation, cultured cells have been exposed to sequential changes of microenvironmental conditions. Monocytes in culture were exposed to chemokine C-C motif ligand 2 (CCL2), responsible for monocytes recruitment to sites of injury through endothelial cells adhesion, lipopolysaccharide (LPS), as a pathogen insult, tumor necrosis factor α (TNFα) and interferon γ (IFN-γ) as inducers of acute phase of inflammation and finally with interleukin 10 (IL-10) and transforming growth factor β (TGF-β), responsible for the resolution of inflammation. In detail: at time zero freshly isolated human monocytes were exposed to CCL2 (20 ng/ml) at 37° C. […]\nFreshly isolated human monocytes, which have been used for all the above-mentioned experiments, were purified from buffy coat prepared at I.N.T. Pascale in Naples. […] The viability of cells was determined by trypan blue staining. The purity of isolated cells (98%) was microscopically detected after centrifugation and staining with modified Wright-Giemsa dye (Diff Quick, Medion Diagnostic AG). […]"}},
  "data": [
    {"smiles": "O=P(O)(OCC(O)CO)OC1C(O)C(O)C(O)C(O)C1O", "note": "(stereo not drawn) [GroPIns, glycerophosphoinositol]", "values": [
      {"measurement": "level of TxB-2 in the medium", "setting": "[1]; 0.1 μg/ml LPS for 5 h", "result": "very small effects"},
      {"measurement": "level of TxB-2 in the medium", "setting": "[1]; 0.1 μg/ml LPS for 24 h", "result": "significantly reduced"},
      {"measurement": "cellular viability (light microscopy)", "setting": "[2]", "result": "cellular viability increased"}
    ]}
  ]
}
